Entries after “also recorded” stand apart in the source; their conditions may differ.
Key:
[1] = solid state, relative to Forms II and III; cited from earlier work
[2] = Solubility in supercritical carbon dioxide; assay type: physicochemical; details: supercritical carbon dioxide as antisolvent

Row | SMILES | thermodynamic stability / transformation to other polymorphic forms [1] | solubility in supercritical carbon dioxide [2]
1 | Cc1cn([C@H]2C=C[C@@H](CO)O2)c(=O)[nH]c1=O [Form I, 2′, 3′-didehydro-3′-deoxythymidine] | stable and shows no transformations to other polymorphic forms; also recorded: most thermodynamically stable form, with no tendency for solid state conversion to the other Forms | 
2 | Cc1cn([C@H]2C=C[C@@H](CO)O2)c(=O)[nH]c1=O [Stavudine, 2′, 3′-didehydro-3′-deoxythymidine] |  | practically insoluble

Reference: patent US20030225279A1, “Stavudine Polymorphic Form 1 process” (priority 2000, published 2003)
